Reference: patent US20180214428A1, “3-(1H-INDOL-2-YL)-1H-PYRAZOLO[3,4-B]PYRIDINES AND THERAPEUTIC USES THEREOF” (Samumed, LLC, priority 2015, published 2018)

What was measured:
IL-6 = IL-6 inhibition in LPS-stimulated THP-1 monocytes (HTRF); assay type: cell-based, human; settings: Homo sapiens, THP-1 cells; for EC50: 500 ng/mL LPS, 22 h, HTRF IL-6 readout, 10-point dose-response from 10 μM; for inhibition at 10 µM: LPS stimulated, given only where EC50 >10 μM, top concentration 10 μM, read-out: percentage in parentheses beside EC50 >10 (IL-6 inhibition)
Method: Human monocyte cell line (THP-1 cells; Catalog # TIB-202, ATCC, Manassas, Va.) were cultured in Roswell Park Memorial Institute (RPMI) 1640 Medium (Catalog #21870-100, Buffalo, N.Y.) with 1% L-glutamine, 1% HEPES, 1% Sodium Pyruvate, 2% Sodium Bicarbonate supplemented with 100 units/mL penicillin, 50 μg/mL streptomycin, 2-mercaptoethanol (0.05 mM) [basal medium] and 10% fetal bovine serum (Catalog #16140089, Life Technologies, Carlsbad, Calif.) at 37° C. and 5% CO2.
THP-1 cells were cultured in basal media with 1% FBS for 24 hours before the start of the assay. Each compound was dissolved in DMSO as a 10 mM stock and used to prepare compound source plates. Serial dilution (1:3, 10-point dose-response curves starting from 10 μM) and compound transfer was performed using the ECHO 550 (Labcyte, Sunnyvale, Calif.) into 384-well white low volume assay plates (Greiner Bio-One) with appropriate DMSO backfill for a final DMSO concentration of 0.1%. THP-1 cells were plated at 5000 cells/well in the 384-well plates and incubated at 37° C. for 2 h. 500 ng/mL of LPS was added after 2 hours and cells were incubated for another 22 hours at 37° C. Plates were spun in a centrifuge for 1 minute at […] and a mixture of anti-IL6 XL665, and anti-IL6 Cryptate diluted in reconstitution buffer (Cisbio Inc.) was added to each well. Following incubation for 3 hrs at room temperature, Homogeneous Time-Resolved Fluorescence (HTRF) was measured using the Envision (Perkin Elmer) at 665 nm and […]. The ratio of fluorescence at 665 nm to 620 nm was used as a readout for IL6 quantification. All samples were processed in duplicate. Readings were normalized to DMSO treated cells and normalized activities were utilized for EC50 calculations using the dose-response log (inhibitor) vs. response variable slope (four parameters) nonlinear regression feature available in GraphPad Prism 5.0 (or Dotmatics). For EC50 of >10 μM, the percent inhibition at 10 μM is provided.

[1] = tested on: primary human fibroblasts derived from IPF patients (LL29 cells); test: Inhibition of the fibrotic process: αSMA staining in TGF-β1 treated LL29 fibroblasts; assay type: cell-based; settings: Homo sapiens, Fibroblast; for EC50: 96 h, TGF-β1 20 ng/mL, 4 days, % αSMA positive cells; for inhibition at 10 µM: given for EC50 of >10 μM, TGF-β1, αSMA, read-out: percent inhibition at 10 μM
Description: Representative compounds were screened using primary human fibroblasts (derived from IPF patients) treated with TGF-β1 to determine their ability to inhibit the fibrotic process.
Primary human fibroblasts derived from IPF patients (LL29 cells) [^1Xiaoqiu Liu, et. al., “Fibrotic Lung Fibroblasts Show Blunted Inhibition by cAMP Due to Deficient cAMP Response Element-Binding Protein Phosphorylation”, Journal of Pharmacology and Experimental Therapeutics (2005), 315(2), 678-687; ^2Watts, K. L., et. al., “RhoA signaling modulates cyclin D1 expression in human lung fibroblasts; implications for idiopathic pulmonary fibrosis”, Respiratory Research (2006), 7(1), 88] were obtained from American Type Culture Collection (ATCC) and expanded in F12 medium supplemented with 15% Fetal Bovine Serum and Penicillin/Streptomycin.
Each compound was dissolved in DMSO as a 10 mM stock and used to prepare compound source plates. Serial dilution (1:2, 11-point dose-response curves from 10 μM to […]) and compound transfer was performed using the ECHO 550 (Labcyte, Sunnyvale, Calif.) into 384-well clear bottom assay plates (Greiner Bio-One) with appropriate DMSO backfill for a final DMSO concentration of 0.1%. LL29 cells are plated at 1,500 cells/well in 80 μL/well F12 medium supplemented with 1% Fetal Bovine Serum. One hour after addition of the cells, TGF-01 (Peprotech; 20 ng/mL) was added to the plates to induce fibrosis (ref. 1 and 2 above). Wells treated with TGF-β1 and containing DMSO were used as controls. Cells were incubated at 37° C. and 5% CO2 for 4 days. Following incubation for 4 days, SYTOX green nucleic acid stain (Life Technologies [Thermo Fisher Scientific]) was added to the wells at a final concentration of 1 μM and incubated at room temperature for 30 min. Cells were then fixed using 4% formaldehyde (Electron Microscopy Sciences), washed 3 times with PBS followed by blocking and permeabilization using 3% Bovine Serum Albumin (BSA; Sigma) and 0.3% Triton X-100 (Sigma) in PBS. Cells were then stained with antibody specific to α-smooth muscle actin (aSMA; Abcam) (ref. 1 and 2 above) in 3% Bovine Serum Albumin (BSA; Sigma) and 0.3% Triton X-100 (Sigma) in PBS, and incubated overnight at 4° C. Cells were then washed 3 times with PBS, followed by incubation with Alexa Flor-647 conjugated secondary antibody (Life Technologies [Thermo Fisher Scientific]) and DAPI at room temperature for 1 hour. Cells were then washed 3 times with PBS and plates were sealed for imaging. αSMA staining was imaged by excitation at 630 nm and emission at 665 nm and quantified using the Compartmental Analysis program on the CellInsight CX5 (Thermo Scientific). Dead or apoptotic cells were excluded from analysis based on positive SYTOX green staining. % of total cells positive for aSMA were counted in each well and normalized to the average of 11 wells treated with TGF-01 on the same plate using Dotmatics' Studies Software. The normalized averages (fold change over untreated) of 3 replicate wells for each compound concentration were used to create dose-responses curves and EC50 values were calculated using non-linear regression curve fit in the Dotmatics' Studies Software. For EC50 of >10 μM, the percent inhibition at 10 μM is provided.

| EC50 (IL-6) [µM] | SMILES | EC50 [1] [µM] | inhibition at 10 µM (IL-6) [%] | inhibition at 10 µM [1] [%] |
| --- | --- | --- | --- | --- |
| > 10 | O=C(Nc1cncc(-c2cnc3[nH]nc(-c4cc5c(-c6ccc(F)cc6)cccc5[nH]4)c3c2)c1)C1CCC1 [Compound 41, N-(5-(3-(4-(4-Fluorophenyl)-1H-indol-2-yl)-1H-pyrazolo[3,4-b]pyridin-5-yl)pyridin-3-yl)cyclobutanecarboxamide] | 1.16 | 10.7 | – |
| > 10 | Fc1ccc(-c2cccc3[nH]c(-c4n[nH]c5ncc(-c6cncnc6)cc45)cc23)cc1 [Compound 47, 3-(4-(4-Fluorophenyl)-1H-indol-2-yl)-5-(pyrimidin-5-yl)-1H-pyrazolo[3,4-b]pyridine] | 4.96 | 35.6 | – |
| 0.276 | Nc1cncc(-c2cnc3[nH]nc(-c4cc5c(-c6ccccc6F)cccc5[nH]4)c3c2)c1 [Compound 49, 5-(3-(4-(2-Fluorophenyl)-1H-indol-2-yl)-1H-pyrazolo[3,4-b]pyridin-5-yl) pyridin-3-amine] | 0.173 | – | – |
| 2.69 | CCNCc1cncc(-c2cnc3[nH]nc(-c4cc5c(-c6ccccc6F)cccc5[nH]4)c3c2)c1 [Compound 52, N-((5-(3-(4-(2-Fluorophenyl)-1H-indol-2-yl)-1H-pyrazolo[3,4-b]pyridin-5-yl)pyridin-3-yl)methyl)ethanamine] | 0.991 | – | – |
| 4.64 | CC(C)(C)CC(=O)Nc1cncc(-c2cnc3[nH]nc(-c4cc5c(-c6ccccc6F)cccc5[nH]4)c3c2)c1 [Compound 61, N-(5-(3-(4-(2-Fluorophenyl)-1H-indol-2-yl)-1H-pyrazolo[3,4-b]pyridin-5-yl)pyridin-3-yl)-3,3-dimethylbutanamide] | 4.97 | – | – |
| 9.78 | O=C(Nc1cncc(-c2cnc3[nH]nc(-c4cc5c(-c6ccccc6F)cccc5[nH]4)c3c2)c1)C1CCCC1 [Compound 66, N-(5-(3-(4-(2-Fluorophenyl)-1H-indol-2-yl)-1H-pyrazolo[3,4-b]pyridin-5-yl)pyridin-3-yl)cyclopentanecarboxamide] | 6.53 | – | – |
| 0.076 | c1cncc(-c2cnc3[nH]nc(-c4cc5c(-c6cccnc6)cccc5[nH]4)c3c2)c1 [Compound 74, 5-(Pyridin-3-yl)-3-(4-(pyridin-3-yl)-1H-indol-2-yl)-1H-pyrazolo[3,4-b]pyridine] | 0.41 | – | – |
| 0.088 | CC(C)(C)C(=O)Nc1cncc(-c2cnc3[nH]nc(-c4cc5c(-c6cccnc6)cccc5[nH]4)c3c2)c1 [Compound 78, N-(5-(3-(4-(Pyridin-3-yl)-1H-indol-2-yl)-1H-pyrazolo[3,4-b]pyridin-5-yl)pyridin-3-yl)pivalamide] | > 10 | – | 24.2 |

More lines, now with the values behind:

| SMILES | EC50 (IL-6) [µM] | EC50 [1] [µM] | inhibition at 10 µM (IL-6) [%] | inhibition at 10 µM [1] [%] |
| --- | --- | --- | --- | --- |
| Fc1cccc(-c2cccc3[nH]c(-c4n[nH]c5ncc(-c6cccnc6)cc45)cc23)c1 [Compound 2, 3-(4-(3-Fluorophenyl)-1H-indol-2-yl)-5-(pyridin-3-yl)-1H-pyrazolo[3,4-b]pyridine] | 0.015 | 1.43 | – | – |
| CN(C)c1cncc(-c2cnc3[nH]nc(-c4cc5c(-c6cccc(F)c6)cccc5[nH]4)c3c2)c1 [Compound 5, 5-(3-(4-(3-Fluorophenyl)-1H-indol-2-yl)-1H-pyrazolo[3,4-b]pyridin-5-yl)-N,N-dimethylpyridin-3-amine] | 0.899 | 0.95 | – | – |
| CCCC(=O)Nc1cncc(-c2cnc3[nH]nc(-c4cc5c(-c6cccc(F)c6)cccc5[nH]4)c3c2)c1 [Compound 14, N-(5-(3-(4-(3-Fluorophenyl)-1H-indol-2-yl)-1H-pyrazolo[3,4-b]pyridin-5-yl)pyridin-3-yl)butyramide] | > 10 | > 10 | 20.3 | – |
| Fc1cccc(-c2cccc3[nH]c(-c4n[nH]c5ncc(-c6ccncc6)cc45)cc23)c1 [Compound 15, 3-(4-(3-Fluorophenyl)-1H-indol-2-yl)-5-(pyridin-4-yl)-1H-pyrazolo[3,4-b]pyridine] | > 10 | 1.7 | 55.9 | – |
| O=C(Nc1cncc(-c2cnc3[nH]nc(-c4cc5c(-c6cccc(F)c6)cccc5[nH]4)c3c2)c1)C1CCCCC1 [Compound 19, N-(5-(3-(4-(3-Fluorophenyl)-1H-indol-2-yl)-1H-pyrazolo[3,4-b]pyridin-5-yl)pyridin-3-yl)cyclohexanecarboxamide] | > 10 | > 10 | 19.2 | 28.9 |
| Cc1ccncc1-c1cnc2[nH]nc(-c3cc4c(-c5ccc(F)cc5)cccc4[nH]3)c2c1 [Compound 27, 3-(4-(4-Fluorophenyl)-1H-indol-2-yl)-5-(4-methylpyridin-3-yl)-1H-pyrazolo[3,4-b]pyridine] | > 10 | 1.61 | 41.7 | – |
| CC(C)(C)C(=O)Nc1cncc(-c2cnc3[nH]nc(-c4cc5c(-c6ccc(F)cc6)cccc5[nH]4)c3c2)c1 [Compound 30, N-(5-(3-(4-(4-Fluorophenyl)-1H-indol-2-yl)-1H-pyrazolo[3,4-b]pyridin-5-yl)pyridin-3-yl)pivalamide] | > 10 | 4.16 | 42.8 | – |
| O=C(Nc1cncc(-c2cnc3[nH]nc(-c4cc5c(-c6ccc(F)cc6)cccc5[nH]4)c3c2)c1)c1ccccc1 [Compound 32, N-(5-(3-(4-(4-Fluorophenyl)-1H-indol-2-yl)-1H-pyrazolo[3,4-b]pyridin-5-yl)pyridin-3-yl)benzamide] | > 10 | 4.95 | 17.7 | – |
| Fc1ccc(-c2cccc3[nH]c(-c4n[nH]c5ncc(-c6cncc(CN7CCCC7)c6)cc45)cc23)cc1 [Compound 35, 3-(4-(4-Fluorophenyl)-1H-indol-2-yl)-5-(5-(pyrrolidin-1-ylmethyl)pyridin-3-yl)-1H-pyrazolo[3,4-b]pyridine] | 0.212 | 2.35 | – | – |
| Fc1ccc(-c2cccc3[nH]c(-c4n[nH]c5ncc(-c6cncc(CN7CCCCC7)c6)cc45)cc23)cc1 [Compound 36, 3-(4-(4-Fluorophenyl)-1H-indol-2-yl)-5-(5-(piperidin-1-ylmethyl)pyridin-3-yl)-1H-pyrazolo[3,4-b]pyridine] | > 10 | 2.44 | 45.5 | – |
